Results published in US20240360179A1, “STAPLED PEPTIDES AND METHODS THEREOF” (FOG PHARMACEUTICALS, INC., priority 2021, published 2024).
Where two headings read alike, the source gives them in different places.

Assays:
[1] = target: T1, full-length B-Catenin (Uniprot ID P35222) (Homo sapiens, UniProt P35222); format: binding
T1 construct: 10 nM full-length B-Catenin (Uniprot ID P35222)
T1 sequence (P35222 1-781): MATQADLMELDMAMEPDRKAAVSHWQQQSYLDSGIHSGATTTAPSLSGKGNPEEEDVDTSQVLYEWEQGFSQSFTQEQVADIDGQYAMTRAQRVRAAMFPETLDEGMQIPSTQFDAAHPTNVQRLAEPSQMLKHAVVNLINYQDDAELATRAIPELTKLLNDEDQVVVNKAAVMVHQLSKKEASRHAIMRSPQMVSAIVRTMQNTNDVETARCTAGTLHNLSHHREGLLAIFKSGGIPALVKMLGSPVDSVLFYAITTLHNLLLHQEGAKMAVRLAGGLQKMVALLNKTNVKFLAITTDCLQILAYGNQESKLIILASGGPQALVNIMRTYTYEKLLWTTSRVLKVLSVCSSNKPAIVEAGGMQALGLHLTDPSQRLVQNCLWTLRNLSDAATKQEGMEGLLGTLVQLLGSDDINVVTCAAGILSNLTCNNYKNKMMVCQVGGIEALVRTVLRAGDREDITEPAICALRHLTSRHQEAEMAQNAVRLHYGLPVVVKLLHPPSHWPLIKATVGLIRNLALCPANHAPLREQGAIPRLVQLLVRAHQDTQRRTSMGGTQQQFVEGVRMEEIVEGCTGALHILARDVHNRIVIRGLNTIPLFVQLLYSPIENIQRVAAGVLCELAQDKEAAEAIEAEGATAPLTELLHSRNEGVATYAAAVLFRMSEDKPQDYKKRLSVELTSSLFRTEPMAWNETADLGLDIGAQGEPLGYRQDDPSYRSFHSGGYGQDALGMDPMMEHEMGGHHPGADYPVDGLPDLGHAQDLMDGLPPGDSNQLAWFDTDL

[2] = target: T2, TCF/LEF luciferase reporter in DLD1 cells (Homo sapiens, UniProt P35222); experiment: TCF reporter assay in DLD1 cells (4% or 20% FBS); format: cell-based
T2 sequence (P35222 2-781): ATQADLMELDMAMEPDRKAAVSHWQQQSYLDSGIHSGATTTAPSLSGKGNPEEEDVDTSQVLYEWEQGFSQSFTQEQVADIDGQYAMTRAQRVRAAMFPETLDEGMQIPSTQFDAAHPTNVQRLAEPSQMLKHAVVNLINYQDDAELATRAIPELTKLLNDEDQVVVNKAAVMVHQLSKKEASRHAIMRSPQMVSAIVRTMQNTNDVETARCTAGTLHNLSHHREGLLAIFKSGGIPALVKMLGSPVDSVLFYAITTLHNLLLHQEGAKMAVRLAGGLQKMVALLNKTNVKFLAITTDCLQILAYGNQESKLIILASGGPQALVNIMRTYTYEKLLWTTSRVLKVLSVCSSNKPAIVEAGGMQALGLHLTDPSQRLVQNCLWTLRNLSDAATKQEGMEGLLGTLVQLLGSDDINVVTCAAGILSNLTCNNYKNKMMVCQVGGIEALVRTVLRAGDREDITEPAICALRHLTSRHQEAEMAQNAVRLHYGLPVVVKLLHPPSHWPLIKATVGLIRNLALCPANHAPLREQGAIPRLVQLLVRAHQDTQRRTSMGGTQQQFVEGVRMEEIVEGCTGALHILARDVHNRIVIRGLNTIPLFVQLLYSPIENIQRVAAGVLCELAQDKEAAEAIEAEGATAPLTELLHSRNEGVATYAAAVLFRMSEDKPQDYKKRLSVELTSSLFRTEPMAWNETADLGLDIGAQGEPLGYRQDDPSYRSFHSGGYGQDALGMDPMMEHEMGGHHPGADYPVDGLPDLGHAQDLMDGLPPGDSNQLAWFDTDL

[3] = target: T3, beta-catenin/TCF4 interaction (Homo sapiens, UniProt P35222); format: cell-based; conditions: read-out: NanoBRET Abs IC50
T3 construct: host or cells: HEK293
T3 sequence (P35222 1-781): T1 sequence (P35222 1-781)

[4] = read-out: DLD1 4% Abs IC50, DLD1 TCF reporter, 4% FBS
[5] = competition fluorescence polarization, read-out: beta-Catenin FP IC50
[6] = read-out: beta-catenin TCF4 competition FP assay IC50

“Ac-PL3-Asp-Npg-B5-Asp-3COOHF-Aib-Ala-Phe-Lys*3-PyrS2-3Thi-BztA-GlnR*3-Thr-Aib-NH2 [I-412]” was tested, and the IC50 ([1]; read-out: beta-Catenin FP IC50) was < 50 nM.
“Ac-PL3-Asp-Npg-B5-Asp-3COOHF-Aib-Ala-Phe-Lys*3-PyrS2-3Thi-BztA-GlnR*3-dAla-Ser-NH2 [I-461]” was tested, and the IC50 ([1]; read-out: beta-Catenin FP IC50) was < 50 nM.
With “Ac-PL3-Asn-Npg-B5-Asp-3COOHF-Ala-Ala-Phe-Lys*3-PyrS2-2F3MeF-BztA-GlnR*3-Leu-Ser-NH2 [I-142]” the IC50 [2, 4] was > 5000 nM.
With “Ac-PL3-Asp-Npg-B5-Asp-3COOHF-Aib-Ala-Phe-TriAzLys*3-PyrS2-Phe-BztA-sAbu*3-Ala-NH2 [I-420]” the IC50 ([1]; read-out: beta-Catenin FP IC50) was < 50 nM.
“Ac-PL3-Asp-Leu-B5-Asp-3COOHF-Ala-Ala-Phe-Lys*3-PyrS2-3Thi-BztA-GlnR*3-NH2 [I-12]” was tested, and the IC50 ([1]; read-out: beta-Catenin FP IC50) was < 50 nM.
In the case of “Ac-PL3-Asp-Npg-B5-Asp-3COOHF-Ala-Aib-Phe-Lys*3-PyrS2-3Thi-BztA-GlnR*3-Ala-NH2 [I-442]”, the IC50 [3] is reported as > 10000 nM.
With “Ac-PL3-Asp-Npg-B5-Asp-3COOHF-Aib-Ala-Phe-Lys*3-PyrS2-3Thi-BztA-GlnR*3-Val-Aib-NH2 [I-408]” the IC50 ([1]; read-out: beta-Catenin FP IC50) was < 50 nM.
For “4pentenyl-MePro-Asp-B5-Ala-Asp-3COOHF-Ala-Ala-Phe-PyrS2-Lys*3-3Thi-BztA-Ala-GlnR*3-NH2 [I-932]”, the IC50 [1, 5] was > 1000 nM.
With “Ac-PL3-Asp-Npg-B5-Asp-3COOHF-Aib-Ala-Phe-Lys*3-PyrS2-Phe-BztA-GlnR*3-Ala-NH2 [I-280]” the IC50 ([1]; read-out: beta-Catenin FP IC50) was < 50 nM.
For “Ac-PL3-Asp-Npg-B5-Asp-3COOHF-CyLeu-Ala-Phe-Lys*3-PyrS2-2F3MeF-BztA-GlnR*3-Leu-Ser-NH2 [I-141]”, the IC50 [2, 4] was ≤ 1000 nM.
For “Ac-PL3-Asp-Npg-B5-Asp-3COOHF-Cpg-Ala-Phe-Lys*3-PyrS2-2F3MeF-BztA-GlnR*3-Leu-Ser-NH2 [I-139]”, the IC50 [2, 4] was ≤ 1000 nM.
“Ac-PL3-Asp-Npg-B5-Asp-3COOHF-Aib-Ala-Phe-[2_6-naph]Cys-PyrS2-3Thi-BztA-Cys-Ala-NH2 [I-566]” was tested, and the IC50 [1, 6] was 58 nM and the IC50 ([2]; read-out: beta-catenin TCF4 DLD1 cell reporter assay IC50) was > 20000 nM.
Work on “Ac-PL3-Asp-Npg-B5-Asp-3COOHF-Ala-Ala-Phe-Lys*3-PyrS2-3Thi-BztA-hGlnR*3-Ala-NH2 [I-183]” yielded an IC50 [2, 4] of 1000 to 5000 nM.
In the case of “Ac-PL3-Asp-Npg-B5-Asp-3COOHF-Aib-Ala-Phe-Lys*3-PyrS2-Phe-2NapA-GlnR*3-Ala-NH2 [I-484]”, the IC50 ([1]; read-out: beta-Catenin FP IC50) is reported as < 50 nM.
“Ac-PL3-Asp-Leu-B5-Asp-3COOHF-Ala-Ala-Phe-GlnR*3-PyrS2-3Thi-BztA-Lys*3-NH2 [I-16]” was tested, and the IC50 ([1]; read-out: beta-Catenin FP IC50) was < 50 nM.
In the case of “Ac-PL3-Asn-Npg-B5-Asp-3COOHF-Aib-Ala-Phe-Lys*3-PyrS2-2F3MeF-BztA-GlnR*3-Leu-Ser-NH2 [I-144]”, the IC50 [2, 4] is reported as 1000 to 5000 nM.
For “Ac-PL3-Asp-Npg-B5-Asp-3COOHF-Ala-Ala-Phe-TriAzLys*3-PyrS2-3Thi-BztA-sAla*3-Ala-NH2 [I-337]”, the IC50 ([2]; read-out: DLD1 4% Abs IC50, DLD1 TCF reporter, 4% FBS, absolute IC50) was ≤ 1000 nM.
Substance “4pentenyl-MePro-Asp-B5-Ala-Asp-3COOHF-Ala-Ala-Phe-PyrS2-Lys*3-3Thi-BztA-Ala-GlnR*3-NH2 [I-993]” has an IC50 [1, 5] of 750 to 1000 nM.
In the case of “Ac-PL3-Asp-Cha-B5-Asp-3COOHF-Ala-Ala-Phe-Lys*3-PyrS2-2F3MeF-BztA-GlnR*3-Ala-NH2 [I-98]”, the IC50 ([1]; read-out: beta-Catenin FP IC50) is reported as < 50 nM.
In the case of “Ac-PL3-Asp-Npg-B5-Asp-3COOHF-Aib-Ala-Phe-[pXyl]Cys-PyrS2-2F3MeF-BztA-Cys-Ala-NH2 [I-377]”, the IC50 [1, 6] is reported as 93 nM.
With “Ac-PL3-Asp-Npg-B5-Asp-3COOHF-Aib-Ala-Phe-Lys*3-PyrS2-nLeu-BztA-GlnR*3-Ala-NH2 [I-272]” the IC50 ([1]; read-out: beta-Catenin FP IC50) was < 50 nM.
